The record followed here is US12084436B2, “Heterocyclic compound” (Takeda Pharmaceutical Company Limited, priority 2019, dated 2024).

For the experiment, the target named is T1, HDAC6 enzyme (Homo sapiens, UniProt Q9UBN7).
T1 construct: prepared by transducing full length HDAC6 gene into Sf-9 insect cells; GST; purchased SignalChem; host or cells: Sf-9 insect cells
T1 sequence (Q9UBN7 1-1215): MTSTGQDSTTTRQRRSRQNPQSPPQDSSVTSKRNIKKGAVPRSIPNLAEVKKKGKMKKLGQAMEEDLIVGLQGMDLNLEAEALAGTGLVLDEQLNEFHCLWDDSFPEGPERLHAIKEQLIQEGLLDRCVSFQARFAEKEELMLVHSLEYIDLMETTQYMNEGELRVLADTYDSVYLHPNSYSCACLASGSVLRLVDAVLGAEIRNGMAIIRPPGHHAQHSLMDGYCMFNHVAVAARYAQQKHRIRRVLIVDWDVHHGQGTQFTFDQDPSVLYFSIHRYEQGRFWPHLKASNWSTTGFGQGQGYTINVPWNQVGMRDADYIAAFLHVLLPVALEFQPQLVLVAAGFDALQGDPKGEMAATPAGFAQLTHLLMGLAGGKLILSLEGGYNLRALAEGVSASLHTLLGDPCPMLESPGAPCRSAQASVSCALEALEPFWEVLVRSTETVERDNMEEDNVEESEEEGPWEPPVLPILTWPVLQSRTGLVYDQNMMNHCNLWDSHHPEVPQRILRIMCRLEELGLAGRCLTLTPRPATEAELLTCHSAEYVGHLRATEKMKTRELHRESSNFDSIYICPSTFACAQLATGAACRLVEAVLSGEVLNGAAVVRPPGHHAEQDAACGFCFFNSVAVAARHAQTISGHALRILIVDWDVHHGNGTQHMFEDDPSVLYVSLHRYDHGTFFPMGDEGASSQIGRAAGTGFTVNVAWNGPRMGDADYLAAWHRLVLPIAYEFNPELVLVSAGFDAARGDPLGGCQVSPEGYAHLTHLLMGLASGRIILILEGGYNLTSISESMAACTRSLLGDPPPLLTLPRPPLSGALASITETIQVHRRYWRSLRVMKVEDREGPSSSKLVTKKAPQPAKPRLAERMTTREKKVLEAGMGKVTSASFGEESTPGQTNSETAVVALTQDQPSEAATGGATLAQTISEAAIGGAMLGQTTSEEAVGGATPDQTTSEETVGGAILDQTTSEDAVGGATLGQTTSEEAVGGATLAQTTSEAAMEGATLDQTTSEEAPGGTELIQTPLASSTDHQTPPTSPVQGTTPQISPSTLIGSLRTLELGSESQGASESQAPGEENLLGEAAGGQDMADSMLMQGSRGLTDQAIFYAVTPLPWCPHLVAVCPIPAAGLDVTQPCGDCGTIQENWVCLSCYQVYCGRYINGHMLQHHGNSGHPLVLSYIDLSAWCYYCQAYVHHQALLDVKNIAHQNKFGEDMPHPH
The experiment in a line: HDAC6 enzyme inhibitory assay (HDAC-Glo I/II Assay kit, luminescence). In kind it is biochemical. The settings on record: 10 μM test compound; wells without enzyme = 100% inhibition; read-out: HDAC6 inhibitory rate (%) (10 μM). In outline: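 Full-length human HDAC6, GST-purified from Sf-9 cells, was preincubated with compound for 60 min at room temperature in Tris-HCl pH 7.5 buffer with glutathione and Tween-20. Substrate-developer was then added, and luminescence was read after 20 min at room temperature. Inhibition was expressed relative to no-enzyme wells, taken as 100% inhibition.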

Structures are written as SMILES.

Turning to `Fc1cc(-c2nnc(C(F)F)o2)cc(-c2nccn2Cc2cnccn2)c1` [Example 43a, 2-[(2-{3-[5-(difluoromethyl)-1,3,4-oxadiazol-2-yl]-5-fluorophenyl}-1H-imidazol-1-yl)methyl]pyrazine], the inhibition at 10 µM amounted to 98%.
The same measure for `CC(C)(C)OC(=O)N1CCCC1COc1cccnc1-c1cc(F)cc(-c2nnc(C(F)F)o2)c1` (stereo not shown) [Example 17a]: 96%; for `O=C(OCC(F)F)N(Cc1ccc(F)cc1)N1Cc2ccc(-c3nnc(C(F)F)o3)cc2C1=O` [Example 16c, 2,2-difluoroethyl {6-[5-(difluoromethyl)-1,3,4-oxadiazol-2-yl]-1-oxo-1,3-dihydro-2H-isoindol-2-yl}[(4-fluorophenyl)methyl]carbamate]: 100%; for `CCN1C(=O)c2cc(-c3nnc(C(F)F)o3)ccc2CN1c1ccc(F)cc1` [Example 46b, 7-[5-(difluoromethyl)-1,3,4-oxadiazol-2-yl]-2-ethyl-3-(4-fluorophenyl)-3,4-dihydrophthalazin-1(2H)-one]: 100%.
With `CN1C(=O)c2cc(-c3nnc(C(F)F)o3)cnc2CC1(C)c1ccc(F)cc1` (stereo not shown) [Example 25b, 3-[5-(difluoromethyl)-1,3,4-oxadiazol-2-yl]-7-(4-fluorophenyl)-6,7-dimethyl-7,8-dihydro-1,6-naphthyridin-5(6H)-one], the inhibition at 10 µM worked out at 100%.
Then `CN(Cc1ccc(F)c(F)c1)N1Cc2ccc(-c3nnc(C(F)F)o3)cc2C1=O` [Example 40c, 6-[5-(difluoromethyl)-1,3,4-oxadiazol-2-yl]-2-{[(3,4-difluorophenyl)methyl](methyl)amino}-2,3-dihydro-1H-isoindol-1-one], with 101%; and `O=C(OCc1ccccn1)N(Cc1ccc(F)cc1)N1Cc2ccc(-c3nnc(C(F)F)o3)cc2C1=O` [Example 25c, (pyridin-2-yl)methyl {6-[5-(difluoromethyl)-1,3,4-oxadiazol-2-yl]-1-oxo-1,3-dihydro-2H-isoindol-2-yl}[(4-fluorophenyl)methyl]carbamate], with 99%; and `Fc1ccc(Cc2ccnn2-c2cc(-c3nnc(C(F)F)o3)ccn2)cc1` [Example 73a, 4-[5-(difluoromethyl)-1,3,4-oxadiazol-2-yl]-2-[5-[(4-fluorophenyl)methyl]-1H-pyrazol-1-yl}pyridine], with 100%.
The same measure for `N#Cc1cccc(Cn2ccnc2-c2cc(-c3nnc(C(F)F)o3)ccn2)c1` [Example 72a, 3-[(2-{4-[5-(difluoromethyl)-1,3,4-oxadiazol-2-yl]pyridin-2-yl}-1H-imidazol-1-yl)methyl]benzonitrile]: 100%.
The same measure for `Fc1cc(-c2nnc(C(F)F)o2)cc(-c2nccn2Cc2cccc(Cl)c2)c1` [Example 21a, 2-(3-[1-[(3-chlorophenyl)methyl]-1H-imidazol-2-yl}-5-fluorophenyl)-5-(difluoromethyl)-1,3,4-oxadiazole]: 93%; for `COCCOc1cccnc1-c1cc(F)cc(-c2nnc(C(F)F)o2)c1` [Example 13a, 2-{3-[5-(difluoromethyl)-1,3,4-oxadiazol-2-yl]-5-fluorophenyl}-3-(2-methoxyethoxy)pyridine]: 92%.
Turning to `O=C(CC(F)(F)F)N(Cc1cnn(C2CC2)c1)N1Cc2ccc(-c3nnc(C(F)F)o3)cc2C1=O` [Example 12c, N-[(1-cyclopropyl-1H-pyrazol-4-yl)methyl]-N-{6-[5-(difluoromethyl)-1,3,4-oxadiazol-2-yl]-1-oxo-1,3-dihydro-2H-isoindol-2-yl}-3,3,3-trifluoropropanamide], the inhibition at 10 µM is 98%.
Then `CN1C(=O)c2cc(-c3nnc(C(F)F)o3)ccc2OC1(C)c1ccccn1` (stereo not shown) [Example 12b, 6-[5-(difluoromethyl)-1,3,4-oxadiazol-2-yl]-2,3-dimethyl-2-(pyridin-2-yl)-2,3-dihydro-4H-1,3-benzoxazin-4-one], with 98%.
